The source made the active and inactive calls.
How the values were obtained:
[1] = molecular target: DNA (cytosine-5)-methyltransferase 1 (Homo sapiens, UniProt P26358); test: inhibition of DNA methylation by DNMT1 – biochemical, fluorescent molecular beacon, confirmation (AID 602386); format: functional
[2] = molecular target: T1, Rac GTPase-activating protein 1 (Homo sapiens, UniProt Q9H0H5); test: blockers of MgcRacGAP-driven Rac1 GTP hydrolysis – biochemical, ADP Hunter fluorescence, primary and confirmatory, confirmation (AID 624330); format: functional
T1 sequence (Q9H0H5 whole entry): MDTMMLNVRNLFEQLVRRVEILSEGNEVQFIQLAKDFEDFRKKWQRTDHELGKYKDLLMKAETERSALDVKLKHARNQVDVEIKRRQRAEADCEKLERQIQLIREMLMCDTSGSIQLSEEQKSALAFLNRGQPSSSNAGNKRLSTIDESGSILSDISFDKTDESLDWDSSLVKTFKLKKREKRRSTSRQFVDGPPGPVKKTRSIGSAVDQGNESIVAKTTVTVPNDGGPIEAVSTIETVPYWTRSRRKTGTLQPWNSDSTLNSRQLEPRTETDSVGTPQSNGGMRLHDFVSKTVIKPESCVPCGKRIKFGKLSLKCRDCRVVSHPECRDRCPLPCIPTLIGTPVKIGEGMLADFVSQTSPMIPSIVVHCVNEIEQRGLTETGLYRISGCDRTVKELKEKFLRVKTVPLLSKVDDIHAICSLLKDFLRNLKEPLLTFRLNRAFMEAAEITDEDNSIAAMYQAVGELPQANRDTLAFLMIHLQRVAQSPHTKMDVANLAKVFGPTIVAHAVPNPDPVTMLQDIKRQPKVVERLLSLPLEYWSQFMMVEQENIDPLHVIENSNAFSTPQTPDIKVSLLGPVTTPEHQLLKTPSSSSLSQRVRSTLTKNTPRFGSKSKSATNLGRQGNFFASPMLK

Ephrin type-A receptor 4 = Ephrin type-A receptor 4 (Mus musculus, UniProt Q03137); test: EphA4 ligand-binding antagonists – biochemical, colorimetric, mouse EphA4, primary screen (AID 689); format: functional
[3] = molecular target: Eukaryotic translation initiation factor 4E (Mus musculus, UniProt P63073); test: blockers of eIF4G binding by eIF4E – biochemical, TR-FRET, dose response (AID 855); format: functional;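 note: potency for disrupting eIF4E binding to eIF4GI seen as loss of FRET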
Sequence of Eukaryotic translation initiation factor 4E (P63073 whole entry): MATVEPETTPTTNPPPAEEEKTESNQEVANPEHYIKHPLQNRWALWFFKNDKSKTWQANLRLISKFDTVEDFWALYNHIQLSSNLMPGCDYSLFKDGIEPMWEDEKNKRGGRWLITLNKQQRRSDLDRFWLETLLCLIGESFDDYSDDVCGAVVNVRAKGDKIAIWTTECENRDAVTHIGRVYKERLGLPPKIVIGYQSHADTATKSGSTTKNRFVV

[4] = molecular target: Induced myeloid leukemia cell differentiation protein Mcl-1 (Homo sapiens, UniProt Q07820); format: functional
Sequence of Induced myeloid leukemia cell differentiation protein Mcl-1 (Q07820 whole entry): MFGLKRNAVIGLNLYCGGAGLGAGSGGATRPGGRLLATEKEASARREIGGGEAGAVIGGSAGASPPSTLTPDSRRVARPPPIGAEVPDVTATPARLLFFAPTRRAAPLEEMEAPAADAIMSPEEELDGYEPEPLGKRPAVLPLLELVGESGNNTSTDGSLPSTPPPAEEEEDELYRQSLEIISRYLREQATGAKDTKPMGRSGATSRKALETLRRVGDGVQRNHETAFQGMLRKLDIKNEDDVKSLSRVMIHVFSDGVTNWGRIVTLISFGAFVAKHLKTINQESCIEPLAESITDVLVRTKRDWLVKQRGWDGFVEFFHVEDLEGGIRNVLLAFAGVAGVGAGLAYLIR

[5] = molecular target: T2, Calpain-2 catalytic subunit (Sus scrofa, UniProt P43367); test: m-calpain protease blockers, concentration series – biochemical, fluorogenic peptide substrate, dose response (AID 1420); format: functional
T2 sequence (P43367 whole entry): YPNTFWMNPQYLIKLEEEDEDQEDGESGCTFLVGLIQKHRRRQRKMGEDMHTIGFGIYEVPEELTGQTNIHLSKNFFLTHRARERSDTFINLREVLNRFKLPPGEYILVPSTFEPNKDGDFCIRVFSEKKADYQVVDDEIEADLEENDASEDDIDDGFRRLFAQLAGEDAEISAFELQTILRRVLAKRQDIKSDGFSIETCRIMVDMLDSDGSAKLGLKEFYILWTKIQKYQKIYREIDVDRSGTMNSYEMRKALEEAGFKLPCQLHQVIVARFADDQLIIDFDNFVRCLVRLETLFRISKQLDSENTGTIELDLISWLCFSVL

[6] = molecular target: Mitochondrial peptide methionine sulfoxide reductase (Bos taurus, UniProt P54149); format: functional;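 note: absorbance read-out, biochemical high-throughput dose-response screen for MsrA inhibitors, confirmatory; recombinant bovine MsrA coupled to E. coli TrxB with NADPH and selenocystamine; potency is for inhibitors of MsrA activity on DMSO substrate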
Sequence of Mitochondrial peptide methionine sulfoxide reductase (P54149 whole entry): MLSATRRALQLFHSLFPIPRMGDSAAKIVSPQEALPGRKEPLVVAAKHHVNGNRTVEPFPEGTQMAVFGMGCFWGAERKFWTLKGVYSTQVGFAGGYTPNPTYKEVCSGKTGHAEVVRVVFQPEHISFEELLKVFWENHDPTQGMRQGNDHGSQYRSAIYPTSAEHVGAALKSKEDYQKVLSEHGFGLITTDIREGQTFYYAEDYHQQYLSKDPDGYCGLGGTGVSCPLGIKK

Interleukin-8 [7] = molecular target: T3, Interleukin-8 (Homo sapiens, UniProt P10145); test: Dose Response confirmation of uHTS small molecule hits for cystic fibrosis induced NFkb Inhibitors in a TNFa-induced IL8 counterscreen.; format: functional; conditions: read-out: IC50_Mean
T3 sequence (P10145 whole entry): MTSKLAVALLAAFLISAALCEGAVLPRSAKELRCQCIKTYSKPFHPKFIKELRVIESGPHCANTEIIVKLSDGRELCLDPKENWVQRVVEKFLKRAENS

Interleukin-8 [8] = molecular target: T3, Interleukin-8; test: Dose Response confirmation of uHTS small molecule hits for cystic fibrosis induced NFkb Inhibitors in a PAF-induced IL8 counterscreen.; format: functional; conditions: read-out: IC50_Mean
HEK293 = test: EBV LMP1 TES2 canonical NF-kB signalling blockers – cell-based, HEK293, luciferase, cherry-pick, dose response (AID 588343); format: functional; conditions: Homo sapiens
[9] = reduced cellular PGC1a acetyl-lysine signal – cell-based, cherry-picked samples, dose response (AID 720514); format: functional;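 note: potency may reflect raised or lowered acetylation signal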
[10] = molecular target: T4, Scavenger receptor class B member 1 (Mus musculus, UniProt Q61009); test: mouse SR-BI DiI-HDL transfer blockers – ldlA[mSR-BI] CHO cells, fluorescence plate reader, dry powder, set 9, dose response (AID 623880); format: functional, cell-based
T4 sequence (Q61009 whole entry): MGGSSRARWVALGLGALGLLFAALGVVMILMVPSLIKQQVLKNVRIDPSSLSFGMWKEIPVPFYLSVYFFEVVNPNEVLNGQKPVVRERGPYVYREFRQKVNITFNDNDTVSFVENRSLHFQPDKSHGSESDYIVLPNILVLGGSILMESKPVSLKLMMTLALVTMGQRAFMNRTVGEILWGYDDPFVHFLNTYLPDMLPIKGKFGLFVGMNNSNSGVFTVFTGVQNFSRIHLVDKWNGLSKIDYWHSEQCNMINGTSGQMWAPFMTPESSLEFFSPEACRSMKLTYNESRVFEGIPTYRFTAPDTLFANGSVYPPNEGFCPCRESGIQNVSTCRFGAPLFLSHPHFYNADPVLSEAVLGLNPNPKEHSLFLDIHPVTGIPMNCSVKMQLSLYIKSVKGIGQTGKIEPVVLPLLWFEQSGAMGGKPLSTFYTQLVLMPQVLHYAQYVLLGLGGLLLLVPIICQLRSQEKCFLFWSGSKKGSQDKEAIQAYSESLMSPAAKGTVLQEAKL

[11] = microbe, parasite or virus in culture; format: functional; conditions: Mycobacterium tuberculosis
[12] = molecular target: T4, Scavenger receptor class B member 1; test: blockers of DiI-HDL lipid transfer via SR-BI – cell-based, ldlA[mSR-BI] CHO, DiI fluorescence, dry powder, set 10, dose response (AID 624029); format: functional
[13] = molecular target: T5, Protein disulfide-isomerase (Homo sapiens, UniProt P07237); test: inhibition of PDI-driven insulin aggregation – biochemical, turbidity, absorbance, cherry-picked samples, dose response (AID 602350); format: functional
T5 sequence (P07237 whole entry): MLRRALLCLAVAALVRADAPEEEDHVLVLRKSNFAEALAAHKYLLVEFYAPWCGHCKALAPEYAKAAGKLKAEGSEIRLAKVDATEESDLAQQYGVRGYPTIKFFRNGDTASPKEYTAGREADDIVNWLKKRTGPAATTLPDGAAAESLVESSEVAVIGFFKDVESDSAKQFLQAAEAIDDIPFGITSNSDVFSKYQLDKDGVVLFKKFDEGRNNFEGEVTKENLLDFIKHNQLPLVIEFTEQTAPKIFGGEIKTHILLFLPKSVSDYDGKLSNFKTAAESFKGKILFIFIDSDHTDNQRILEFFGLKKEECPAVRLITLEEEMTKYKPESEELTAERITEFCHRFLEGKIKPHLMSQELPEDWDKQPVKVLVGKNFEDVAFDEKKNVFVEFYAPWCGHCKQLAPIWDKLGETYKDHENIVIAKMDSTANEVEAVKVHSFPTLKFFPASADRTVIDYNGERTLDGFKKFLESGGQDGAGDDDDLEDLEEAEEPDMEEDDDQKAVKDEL

[14] = molecular target: T5, Protein disulfide-isomerase; test: inhibition of PDI-mediated insulin reduction – biochemical, turbidity, absorbance, cherry-picked samples, set 2, dose response (AID 624274); format: functional
[15] = molecular target: DNA repair and recombination protein RAD54-like (Homo sapiens, UniProt Q92698); test: RAD54 Holliday junction migration blockers – biochemical, fluorescence, cherry-picked samples, dose series, confirmation (AID 651657); format: functional
Sequence of DNA repair and recombination protein RAD54-like (Q92698 whole entry): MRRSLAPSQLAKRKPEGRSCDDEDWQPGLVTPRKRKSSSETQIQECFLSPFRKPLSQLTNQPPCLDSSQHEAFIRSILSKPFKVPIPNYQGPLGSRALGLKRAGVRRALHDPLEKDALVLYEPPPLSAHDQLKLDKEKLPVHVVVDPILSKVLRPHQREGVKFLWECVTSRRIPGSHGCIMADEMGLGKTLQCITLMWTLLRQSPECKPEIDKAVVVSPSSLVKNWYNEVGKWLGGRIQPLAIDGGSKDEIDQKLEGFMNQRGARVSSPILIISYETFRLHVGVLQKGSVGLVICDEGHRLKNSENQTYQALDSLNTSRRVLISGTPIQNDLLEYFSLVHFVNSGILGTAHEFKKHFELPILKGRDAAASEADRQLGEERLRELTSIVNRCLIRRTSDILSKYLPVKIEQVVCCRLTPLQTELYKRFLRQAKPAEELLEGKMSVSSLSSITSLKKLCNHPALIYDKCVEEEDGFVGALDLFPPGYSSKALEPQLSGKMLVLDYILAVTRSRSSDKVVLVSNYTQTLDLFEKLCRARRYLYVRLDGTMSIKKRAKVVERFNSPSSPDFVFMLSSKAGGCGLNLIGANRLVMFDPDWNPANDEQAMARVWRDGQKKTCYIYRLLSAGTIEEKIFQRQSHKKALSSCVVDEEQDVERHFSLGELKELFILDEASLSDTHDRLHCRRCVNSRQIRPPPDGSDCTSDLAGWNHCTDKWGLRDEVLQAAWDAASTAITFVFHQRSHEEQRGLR

[16] = acridine orange displacement from DNA – biochemical, fluorescence polarization, cherry-pick, artefact control for RAD54 inhibitor project, dose response (AID 651673); format: functional
[17] = molecular target: T6, DNA repair protein RAD52 homolog (Homo sapiens, UniProt P43351); format: functional, biochemical
T6 sequence (P43351 whole entry): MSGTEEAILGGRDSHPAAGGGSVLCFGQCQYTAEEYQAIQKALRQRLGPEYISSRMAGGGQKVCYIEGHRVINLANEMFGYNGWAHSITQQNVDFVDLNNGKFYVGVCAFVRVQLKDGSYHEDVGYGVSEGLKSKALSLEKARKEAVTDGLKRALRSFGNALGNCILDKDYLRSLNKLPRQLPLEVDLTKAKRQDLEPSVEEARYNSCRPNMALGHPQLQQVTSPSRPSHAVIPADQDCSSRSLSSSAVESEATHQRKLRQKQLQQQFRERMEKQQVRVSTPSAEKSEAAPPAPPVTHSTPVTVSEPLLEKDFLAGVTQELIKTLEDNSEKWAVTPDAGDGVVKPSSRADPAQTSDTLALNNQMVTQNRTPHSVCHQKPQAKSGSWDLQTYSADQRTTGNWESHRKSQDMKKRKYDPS

[18] = molecular target: T7, Apoptotic protease-activating factor 1 (Homo sapiens, UniProt O14727); test: SAR analysis of small molecule Activators of Apaf-1 in a Fluorescent assay.; format: functional; conditions: read-out: EC50_Mean;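 note: caspase-3 cleavage of fluorogenic Rh110 DEVD substrate downstream of apoptosome activation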
T7 sequence (O14727 whole entry): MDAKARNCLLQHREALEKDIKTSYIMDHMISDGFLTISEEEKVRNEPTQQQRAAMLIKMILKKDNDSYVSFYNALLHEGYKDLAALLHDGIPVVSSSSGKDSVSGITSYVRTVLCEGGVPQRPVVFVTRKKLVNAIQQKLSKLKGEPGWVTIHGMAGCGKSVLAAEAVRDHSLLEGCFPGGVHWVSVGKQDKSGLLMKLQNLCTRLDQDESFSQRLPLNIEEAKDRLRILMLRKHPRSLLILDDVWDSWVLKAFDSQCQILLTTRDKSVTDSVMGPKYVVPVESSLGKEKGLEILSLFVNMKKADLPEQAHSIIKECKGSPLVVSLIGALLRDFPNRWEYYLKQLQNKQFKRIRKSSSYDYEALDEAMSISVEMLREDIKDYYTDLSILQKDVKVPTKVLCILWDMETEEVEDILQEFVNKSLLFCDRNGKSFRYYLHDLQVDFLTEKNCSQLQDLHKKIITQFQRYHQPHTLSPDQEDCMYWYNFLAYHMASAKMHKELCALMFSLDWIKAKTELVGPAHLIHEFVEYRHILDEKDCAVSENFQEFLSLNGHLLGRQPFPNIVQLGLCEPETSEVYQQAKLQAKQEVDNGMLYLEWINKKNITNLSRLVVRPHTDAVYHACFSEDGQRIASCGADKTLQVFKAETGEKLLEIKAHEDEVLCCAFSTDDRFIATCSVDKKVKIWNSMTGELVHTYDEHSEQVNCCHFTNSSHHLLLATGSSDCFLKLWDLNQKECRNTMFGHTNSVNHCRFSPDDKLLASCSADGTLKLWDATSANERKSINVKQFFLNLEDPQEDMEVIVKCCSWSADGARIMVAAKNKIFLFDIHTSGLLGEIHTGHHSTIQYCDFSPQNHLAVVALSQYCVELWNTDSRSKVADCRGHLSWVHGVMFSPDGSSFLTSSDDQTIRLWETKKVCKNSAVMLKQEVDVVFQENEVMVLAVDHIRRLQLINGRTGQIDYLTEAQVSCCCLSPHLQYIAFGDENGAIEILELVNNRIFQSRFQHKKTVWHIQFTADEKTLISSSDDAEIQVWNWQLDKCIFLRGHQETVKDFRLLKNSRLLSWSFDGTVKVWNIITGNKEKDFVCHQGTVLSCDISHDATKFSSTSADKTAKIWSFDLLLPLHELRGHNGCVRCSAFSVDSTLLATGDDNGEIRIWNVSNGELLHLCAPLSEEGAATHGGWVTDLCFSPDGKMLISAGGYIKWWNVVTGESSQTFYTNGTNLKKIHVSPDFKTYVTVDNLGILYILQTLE

[19] = activation of miR-122 Renilla sensor silencing – cell-based, Huh7 psiCHECK-miR122, Renilla luciferase, cherry-picked, dose response (AID 651956); format: functional;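 note: huh7 hepatoma cells stably carrying a psiCHECK-2 miR-122 sensor plasmid; renilla luciferase signal reporting endogenous miR-122 activity after 48 h compound exposure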
Mu-type opioid receptor = Mu-type opioid receptor (Homo sapiens, UniProt P35372); format: functional, cell-based;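 note: U2OS cells with beta-arrestin recruitment to OPRM1 by beta-gal complementation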
Sequence of Mu-type opioid receptor (P35372 whole entry): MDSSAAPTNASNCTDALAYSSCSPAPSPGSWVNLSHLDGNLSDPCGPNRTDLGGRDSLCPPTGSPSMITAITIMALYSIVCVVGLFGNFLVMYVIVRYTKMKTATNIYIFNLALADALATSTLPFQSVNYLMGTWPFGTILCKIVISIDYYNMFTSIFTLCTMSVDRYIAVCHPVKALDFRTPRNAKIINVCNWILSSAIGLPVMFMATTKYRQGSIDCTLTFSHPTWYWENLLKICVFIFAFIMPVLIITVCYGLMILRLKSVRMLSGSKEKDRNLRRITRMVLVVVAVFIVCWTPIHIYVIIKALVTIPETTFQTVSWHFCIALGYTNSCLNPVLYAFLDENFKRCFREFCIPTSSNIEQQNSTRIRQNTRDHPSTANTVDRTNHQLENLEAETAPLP

[20] = molecular target: 5-hydroxytryptamine receptor 2A (Mus musculus, UniProt P35363); format: functional, cell-based;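 note: CHO-K1 cells with tagged receptor and beta-arrestin; agonist potency measured as compound-induced activation of the receptor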
Sequence of 5-hydroxytryptamine receptor 2A (P35363 whole entry, the tested form may be a part): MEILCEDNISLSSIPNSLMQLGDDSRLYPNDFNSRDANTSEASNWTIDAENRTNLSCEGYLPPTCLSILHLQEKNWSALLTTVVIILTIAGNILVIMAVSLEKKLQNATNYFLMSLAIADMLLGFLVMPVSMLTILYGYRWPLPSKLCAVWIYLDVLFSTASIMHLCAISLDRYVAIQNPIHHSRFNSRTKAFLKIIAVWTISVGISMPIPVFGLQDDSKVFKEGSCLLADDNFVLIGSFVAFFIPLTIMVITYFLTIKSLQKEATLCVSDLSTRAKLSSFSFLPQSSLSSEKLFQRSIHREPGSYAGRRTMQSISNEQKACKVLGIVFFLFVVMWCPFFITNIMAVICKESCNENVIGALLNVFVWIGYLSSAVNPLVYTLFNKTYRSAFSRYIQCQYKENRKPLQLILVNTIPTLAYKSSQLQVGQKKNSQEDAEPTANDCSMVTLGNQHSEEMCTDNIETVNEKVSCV

[21] = molecular target: Arf-GAP with SH3 domain, ANK repeat and PH domain-containing protein 1 (Homo sapiens, UniProt Q9ULH1); format: functional;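 note: biochemical fluorescence polarization dose–response screen measuring inhibition of ASAP1; ASAP1 GAP domain stimulating GTP hydrolysis by truncated human ARF1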
Sequence of Arf-GAP with SH3 domain, ANK repeat and PH domain-containing protein 1 (Q9ULH1 whole entry, the tested form may be a part): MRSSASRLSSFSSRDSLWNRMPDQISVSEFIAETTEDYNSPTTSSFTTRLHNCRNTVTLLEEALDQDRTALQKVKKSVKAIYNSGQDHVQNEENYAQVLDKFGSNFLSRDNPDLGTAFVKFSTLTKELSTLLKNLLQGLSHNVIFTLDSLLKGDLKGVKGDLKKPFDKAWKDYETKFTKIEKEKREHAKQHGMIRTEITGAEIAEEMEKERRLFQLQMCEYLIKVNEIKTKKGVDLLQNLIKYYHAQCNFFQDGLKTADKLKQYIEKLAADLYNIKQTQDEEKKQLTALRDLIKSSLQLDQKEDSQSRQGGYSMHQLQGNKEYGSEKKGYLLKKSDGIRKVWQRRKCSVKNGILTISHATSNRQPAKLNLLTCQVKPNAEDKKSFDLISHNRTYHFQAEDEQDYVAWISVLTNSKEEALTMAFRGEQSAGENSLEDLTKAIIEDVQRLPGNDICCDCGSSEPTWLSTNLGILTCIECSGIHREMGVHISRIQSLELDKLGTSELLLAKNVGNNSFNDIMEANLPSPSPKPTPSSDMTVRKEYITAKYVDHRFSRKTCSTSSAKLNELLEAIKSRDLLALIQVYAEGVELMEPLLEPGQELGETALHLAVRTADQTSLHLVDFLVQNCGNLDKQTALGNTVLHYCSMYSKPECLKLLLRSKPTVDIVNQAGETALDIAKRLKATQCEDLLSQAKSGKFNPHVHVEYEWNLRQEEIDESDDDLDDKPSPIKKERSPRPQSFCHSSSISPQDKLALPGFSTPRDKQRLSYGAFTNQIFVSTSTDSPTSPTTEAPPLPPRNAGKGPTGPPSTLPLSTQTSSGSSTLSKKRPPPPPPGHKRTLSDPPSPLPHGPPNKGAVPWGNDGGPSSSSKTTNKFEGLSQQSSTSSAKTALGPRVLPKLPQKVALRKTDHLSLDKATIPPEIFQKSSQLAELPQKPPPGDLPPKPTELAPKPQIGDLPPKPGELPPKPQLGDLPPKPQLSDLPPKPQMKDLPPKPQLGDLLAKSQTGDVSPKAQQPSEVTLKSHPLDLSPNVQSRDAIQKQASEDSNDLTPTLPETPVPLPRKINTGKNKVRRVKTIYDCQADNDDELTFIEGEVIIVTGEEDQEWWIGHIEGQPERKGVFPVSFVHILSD

[22] = molecular target: ADP-ribosylation factor GTPase-activating protein 1 (Rattus norvegicus, UniProt Q62848); test: Fluorescence polarization-based biochemical high throughput dose response screening assay to identify inhibitors of ADP-ribosylation factor GTPase activating protein 1 (ARFGAP1).; format: functional
Sequence of ADP-ribosylation factor GTPase-activating protein 1 (Q62848 whole entry): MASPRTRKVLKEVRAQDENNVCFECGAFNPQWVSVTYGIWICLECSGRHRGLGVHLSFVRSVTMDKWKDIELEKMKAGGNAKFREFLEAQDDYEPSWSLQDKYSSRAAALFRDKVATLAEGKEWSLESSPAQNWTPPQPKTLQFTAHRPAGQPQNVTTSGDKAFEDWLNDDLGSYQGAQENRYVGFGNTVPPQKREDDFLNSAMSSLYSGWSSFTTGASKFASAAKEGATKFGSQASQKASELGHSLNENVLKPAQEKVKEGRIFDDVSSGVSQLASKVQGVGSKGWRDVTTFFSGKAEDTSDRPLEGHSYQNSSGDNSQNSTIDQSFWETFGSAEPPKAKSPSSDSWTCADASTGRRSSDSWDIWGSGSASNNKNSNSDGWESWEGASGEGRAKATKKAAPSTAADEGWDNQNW

[23] = bead-based luminescence quenchers, dual-tagged ARNT – biochemical, AlphaScreen, cherry-pick, artefact control for ARNT-TACC3 interaction inhibitor project, dose response (AID 651705); format: functional;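 note: AlphaScreen bead proximity signal that flags compounds interfering with the detection technology; potency reflects signal decrease which marks the compound as an assay artifact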
[24] = molecular target: Matrix metalloproteinase-14 (Homo sapiens, UniProt P50281); test: Dose Response confirmation of uHTS hits for a small molecule inhibitors of MT1-MMP activation in a fluorescence assay set 1.; format: functional

C=CCOC(=O)c1cc(-c2ccc(/C=C3\C(=O)NC(=O)C(C#N)=C3C)o2)ccc1Cl
IC50 [1]: 5 µM (active) | IC50 [2]: 229 µM (active) | IC50 (Ephrin type-A receptor 4): 1.45 µM (active) | IC50 [3]: 12.8 µM (active) | IC50 [4]: 1.2 µM (active)

CCOC(=O)C/C(C)=N\Nc1ccc([N+](=O)[O-])cc1[N+](=O)[O-]
IC50 [5]: 23 µM (not active) | IC50 [6]: 155 µM (inactive)

CCCN(CC)c1[nH]cnc2nncc1-2
IC50 (Interleukin-8 [7]): 42.3 µM (inactive) | IC50 (Interleukin-8 [8]): 9.12 µM (active) | AC50 (HEK293): 9.96 µM (active) | AC50 [9]: 3.26 µM (active)

CCOc1cc2c3c(c1)C1(C(=O)N3C(C)(C)CC2C)C(C#N)=C(N)N2C(=C1C#N)Nc1ccccc12 (configuration not stated)
AC50 [10]: 10 µM (active) | CC50 [11]: > 40 µM (active) | AC50 [12]: 2.23 µM (active)

O=C(Nc1ccccc1N1CCCC1)c1cc(Cl)ccc1Cl
AC50 [13]: < 0.009 µM (active) | AC50 [14]: 0.009 µM (active)

CCOC(=O)c1cnc2c(ccc3ccccc32)c1NCCN(C)C
AC50 [15]: 9.73 µM (active) | AC50 [16]: 55.9 µM (active) | AC50 [17]: 6.71 µM (active)

Cc1ccc(N2C(=O)[C@@H]3C(c4ccc(F)cc4)=NO[C@@H]3C2=O)cc1
EC50 [18]: > 100 µM (inactive)

Cc1cc(C(C)(C)C)cc(S(=O)(=O)NCCc2ccncc2)c1C
AC50 [19]: 0.598 µM (active)

CCC(=O)c1ccc(OCC(O)CN2CCN(c3ccccn3)CC2)cc1 (configuration not stated)
EC50 (Mu-type opioid receptor): 92.5 µM (inactive) | EC50 [20]: 0.306 µM (active)

COc1cc(/C=N\NC(=O)c2ccc(C)nc2)ccc1OC(=O)c1ccc2c(c1)OCO2
IC50 [21]: 24.8 µM (inactive) | IC50 [22]: 21 µM (inactive)

COCCOC(=O)c1c(N)n(Cc2ccco2)c2nc3ccccc3nc12
AC50 [23]: 130 µM (active)

Cc1ccc(S(=O)(=O)/N=C2\C=C(NS(=O)(=O)c3ccccc3)C(=O)c3ccccc32)c(C)c1
IC50 [24]: 14 µM (active)

Source: ChEMBL document CHEMBL1201862, “PubChem BioAssay data set” (2004)
